{"source": "patent US20120184514A1", "about": "“VITAMIN D COMPOUNDS AND METHODS FOR PREPARING SAME” (Vitamin Derivatives Inc., priority 2009, published 2012)", "assay": "Thermogravimetric analysis of a 1α-hydroxy-vitamin D3 sample", "assay_type": "physicochemical", "details": "heated under nitrogen at 10 °C/min", "procedure": "Thermogravimetric analysis of a 1α-hydroxy-vitamin D3 sample was performed using a TA Instruments 2950 thermogravimetric analyzer (available from TA Instruments of New Castle, Del.). The sample was placed in an aluminum sample pan and inserted into the thermogravimetric furnace. The furnace was heated under nitrogen at a rate of 10 ° C./min, from room temperature to a final temperature of 350° C. Nickel and Alumel™ (available from Hoskins Manufacturing Company, Novi, Mich.) were used as calibration standards. […] (See FIG. 6)."}
{"compound": "C=C1/C(=C\\C=C2/CCC[C@]3(C)[C@@H]([C@H](C)CCCC(C)C)CC[C@@H]23)C[C@@H](O)C[C@@H]1O", "note": "[1α-hydroxy-vitamin D3, 1α, 3β,5Z,7E-9,10-secocholesta-5,7,10(19)-triene-1,3-diol]", "values": [{"measurement": "weight loss (thermogravimetric thermogram)", "setting": "from 25° C. to 150° C.", "result": 0.09, "unit": "%"}, {"measurement": "decomposition temperature (thermogravimetric thermogram)", "setting": "room temperature to 350° C.", "result": "> 200", "unit": "°C"}]}
